Patent US10240133B2, “ERK-derived peptides and uses thereof” (Yeda Research and Development Co. Ltd., priority 2013, dated 2019)

Legend:
c-Myc = test: Western blotting of c-Myc phosphorylation; format: cell-based; conditions: A2158 and A2352 B-Raf melanomas
Description: (A) EPE peptide prevents ERK1/2-importin7 interaction. HeLa cells were serum starved (0.1%, 16 hours), pretreated with EPE peptide, scrambled peptide (10 μM, 2 hours) or DMSO, and then stimulated with TPA (250 nM, 15 min). ERK1 were precipitated with αgERK1 Ab; importin7 co-immunoprecipitated with ERK1 was detected by WB with αimportin7 Ab. […] T47D, HeLa, MDA-MB-231 and A2352 cells were serum starved (0.1%, 16 hours), pretreated with EPE peptide, scrambled peptide (10 μM, 2 hours) or DMSO control, and then stimulated with TPA (250 nM, indicated times). Cell extracts were subjected to Western blot analysis with the indicated Abs. (C) EPE peptide inhibits phosphorylation of c-Myc and Elk1 in B-Raf melanomas. A2158 and A2352 cells were treated with scrambled and EPE peptide for two hours and then stimulated with the indicated concentration of TPA for 30 min. […] (D) Quantification of some of the results in B and C. […]
(i) Preparation of cellular extracts for Western Blotting: Cells were rinsed twice with ice-cold PBS and scraped into Radio-immunoprecipitation assay buffer (RIPA; 137 mM NaCl, 20 mM Tris (pH 7.4), 10% glycerol, 1% Triton X-100, 0.5% deoxycholate, 0.1% SDS, 2 mM EDTA, 1 mM PMSF, and 20 μM leupeptin). The extracts were centrifuged (20,000×g, 15 min, 4° C.), and the supernatants were further analyzed by Western blotting. […]

B-Raf mutated melanomas = test: Apoptosis (TUNEL, PARP-1 cleavage); format: cell-based; conditions: 24 h
Description: (§1) FIGS. 5A-5D illustrate that the EPE peptide leads to apoptosis of B-Raf mutant cancer cells. (A) The EPE peptide affects the morphology of treated cells. The indicated cells were treated with either the EPE or Scr peptides, DMSO, or taxol for 72 h, and photographed by a light microscope. (B) The EPE peptide induces apoptosis in melanoma cells detected by TUNEL. The indicated cell lines were treated as in A for 24 h. Apoptosis was detected by TUNEL staining. Images were obtained by florescence microscope. (C) Quantification of B. The bar-graph represents percent of apoptotic cells calculated in 10 different fields. (D) The EPE peptide induces apoptosis of melanoma cells detected by PARP cleavage. The indicated cell lines were treated as in (A) for 24 h. Cell extracts were subjected to Western blotting with αPARP Ab.
(§2) Cells were seeded on glass cover slips in a 12-wells plate at 25% confluence with medium containing 1% of FCS. Peptides (EPE or Scr), DMSO, or U0126 in a final concentration of 10 μM, were added after 4 h (considered as time “0”). TUNEL staining was performed at 24 h after the treatment according to manufacturer instruction (Roche Applied Science, Nutley, N.J., USA). Briefly, the medium was removed and cells were fixed with 3% of paraformaldehyde (1.5 h, 23° C.). Cells were rinsed twice with PBS and permeabilized with 0.1% Triton X-100 and 0.1% sodium citrate for 2 min on ice. Cells were rinsed twice with PBS and 28 μl of TUNEL reaction mixture (25 μl of TUNEL label, 2.5 μl of TUNEL enzyme and 0.1 mg/ml of DAPI) was added directly on top of the slide, cells were incubated for 16 h in humid box at 37° C. Cover slips were rinsed three times with PBS and mounted on microscope slides. The slides were dried and then subjected to image acquisition by a florescence microscope. For morphology assay, the cells were seeded at approximately 25% confluence in 6 cm plates with medium containing 1% FCS. Peptides (EPE and Scr) or DMSO or U0126 in a final concentration of 10 μM, were added after 4 h (considered to be time 0), 24 h and 48 h. Images were obtained by a light microscope (Olympus BX51) after 72 h.

[1] = tested on: other cell lines examined; test: Apoptosis (TUNEL, PARP-1 cleavage); format: cell-based
Description: as §1, §2

LOXIMVI xenograft = test: Tumor xenograft growth; format: in vivo, CD-1 nude mice; conditions: i.v. tail vein, 3 times a week
Description: (§3) FIGS. 6A-6B illustrate that the EPE peptide prevents the growth of human tumor xenografts. CD-1 nude mice were inoculated with MDA-MB-231, LOXIMVI and HCT-116 cells, and SKID mice were inoculated with A2352 cells. Upon tumors establishment, the mice were treated intravenously with the DMSO as well as EPE or Scr peptides in the indicated doses, 3 times a week. The results are averages of 5 mice in each experimental group. The X, Y, Z dimensions of the tumors were measured with a caliper, and the volume was calculated accordingly. The significance of all experiments was at least P<0.001. (B) The EPE peptide prevents tumor recurrence on melanoma xenograft. SCID mice were inoculated with A2352 cells. Upon establishment of tumors mice were treated intravenously with 15 mg/kg EPE peptide (n=7) or intraperitonealy with 15 mg/kg PLX4032 (n=5), at the indicated dose 3 times a week. Tumor size was recorded at the same time using a caliper. Following 3 weeks of treatment, mice were kept for further evaluation monitoring for any tumor recurrence of the effective treated melanoma xenografts. Experiment was concluded 110 days post inoculation (11 weeks after the last treatment) and the overall state of the animals was evaluated. sac=sacrificed, recur=recurrence, met=metastasis.
(§4) Tumor dimensions were measured with a digital sliding caliper.

MDA-MB-231 xenograft = test: Tumor xenograft growth; format: in vivo, CD-1 nude mice; conditions: i.v. tail vein, 3 times a week
Description: as §3, §4

HCT-116 xenograft = test: Tumor xenograft growth; format: in vivo, CD-1 nude mice; conditions: i.v. tail vein, 3 times a week
Description: as §3, §4

Sequence: GQLNHILGILGEPEQED (Synthetic peptide (EPE)) [EPE peptide, NTS-derived peptide with phosphomimetic EPE motif]
- phosphorylation of c-Myc (c-Myc): did inhibit
- apoptosis (TUNEL, PARP-1) (B-Raf mutated melanomas): enhanced apoptosis
- apoptosis relative to Taxol (B-Raf mutated melanomas): as strong as the apoptosis induced by Taxol
- apoptosis / cell death [1]: No apoptosis was detected
- growth of tumor xenograft (LOXIMVI xenograft): dose dependent inhibition of the growth
- growth of tumor xenograft (MDA-MB-231 xenograft): dose dependent inhibition of the growth
- growth of tumor xenograft (HCT-116 xenograft): to some extent
